Legend:
cynomolgus monkeys = test: 4-week safety study: routine ECG analysis; assay type: in vivo; settings: for QTc / HR / QRS / QT: Male
Experimental: Routine ECG analysis was performed at each scheduled time (day 1 after administration, d01 and d02 after administration, 1 and 24 h after administration on day 1, before administration, and 1 and 24 h after administration on day 26 and day 56). P-wave, R-wave, T-wave, P-R intervals, Q-T intervals, QRS duration and heart rate were recorded by an ECG system using derivation DII (ECG-6951E, Shanghai, China).

[1] = 4-week safety study: toxicokinetics (plasma AUC0-24h, Cmax); assay type: in vivo, cynomolgus monkeys
Experimental: Blood samples were obtained on day1 and day26 at 0, 0.5, 1.5, 3, 5, 7 and 24 h after administration. On each occasion, approximately 1.0 mL of blood was drawn from the vein and collected into EDTA-K2 anticoagulant tubes. The blood samples were put on ice and then centrifuged (3500 rpm, 5 min) at 4° C. to obtain plasma samples, which were kept frozen at about −80° C. until analysis. Toxicokinetics determination of the compound of Formula I was conducted at the Institute of Materia Medica, Chinese Academy of Sciences (Shanghai, China).

## COC(=O)NCCCn1nc([C@@H](C)N(C(=O)[C@H]2CNCCO2)C2CC2)c2ccc(C)nc21 [compound of Formula I]
Cynomolgus monkeys; 20 mg/kg, 1 h (d 1)
  QTc: 241.4 ± 12.3 ms
Cynomolgus monkeys; 20 mg/kg, 1 h (d 26)
  HR: 260.0 ± 12.4 bmp
  QRS: 36.0 ± 5.5 ms
  QT: 146.0 ± 11.4 ms
  QTc: 237.8 ± 16.3 ms
Cynomolgus monkeys; 20 mg/kg, 24 h (d 1)
  HR: 206.1 ± 20.7 bmp
  QRS: 28.0 ± 4.5 ms
  QT: 166.0 ± 8.9 ms
  QTc: 250.0 ± 10.4 ms
Cynomolgus monkeys; 20 mg/kg, 24 h (d 26)
  HR: 264.9 ± 16.1 bmp
  QRS: 34.0 ± 5.5 ms
  QT: 146.0 ± 11.4 ms
  QTc: 239.2 ± 14.8 ms
Cynomolgus monkeys; 20 mg/kg, d0
  HR: 198.4 ± 16.5 bmp
  QRS: 34.0 ± 8.9 ms
  QT: 164.0 ± 11.4 ms
  QTc: 243.9 ± 11.7 ms
Cynomolgus monkeys; 20 mg/kg, d 56
  HR: 225.6 ± 2.4 bmp
  QRS: 30.0 ± 0.0 ms
  QT: 145.0 ± 7.1 ms
  QTc: 225.4 ± 10.2 ms
Cynomolgus monkeys; 100 mg/kg, 1 h (d 1)
  HR: 230.0 ± 19.9 bmp
  QRS: 38.0 ± 4.5 ms
  QT: 156.0 ± 11.4 ms
  QTc: 243.8 ± 16.5 ms
Cynomolgus monkeys; 100 mg/kg, 1 h (d 26)
  HR: 256.9 ± 16.7 bmp
  QRS: 36.0 ± 5.5 ms
  QT: 144.0 ± 5.5 ms
  QTc: 233.8 ± 12.2 ms
Cynomolgus monkeys; 100 mg/kg, 24 h (d 1)
  HR: 208.2 ± 10.4 bmp
  QRS: 36.0 ± 8.9 ms
  QT: 162.0 ± 11.0 ms
  QTc: 245.3 ± 18.6 ms
Cynomolgus monkeys; 100 mg/kg, 24 h (d 26)
  HR: 260.7 ± 9.1 bmp
  QRS: 36.0 ± 5.5 ms
  QT: 144.0 ± 8.9 ms
  QTc: 234.9 ± 13.9 ms
Cynomolgus monkeys; 100 mg/kg, d0
  HR: 215.4 ± 11.2 bmp
  QRS: 32.0 ± 8.4 ms
  QT: 154.0 ± 16.7 ms
  QTc: 235.6 ± 24.5 ms
Cynomolgus monkeys; 100 mg/kg, d 56
  HR: 225.6 ± 2.4 bmp
  QRS: 35.0 ± 7.1 ms
  QT: 165.0 ± 7.1 ms
  QTc: 256.6 ± 11.9 ms
Cynomolgus monkeys; 450 mg/kg, 1 h (d 1)
  HR: 217.4 ± 3.2 bmp
  QRS: 36.7 ± 5.8 ms
  QT: 170.0 ± 10.0 ms
  QTc: 261.1 ± 16.0 ms
Cynomolgus monkeys; 450 mg/kg, 1 h (d 26)
  HR: 247.6 ± 22.6 bmp
  QRS: 36.0 ± 13.4 ms
  QT: 150.0 ± 17.3 ms
  QTc: 240.0 ± 23.7 ms
Cynomolgus monkeys; 450 mg/kg, 24 h (d 1)
  HR: 211.0 ± 15.9 bmp
  QRS: 32.0 ± 4.5 ms
  QT: 166.0 ± 8.9 ms
  QTc: 252.1 ± 9.4 ms
Cynomolgus monkeys; 450 mg/kg, 24 h (d 26)
  HR: 210.4 ± 49.9 bmp
  QRS: 38.0 ± 4.5 ms
  QT: 158.0 ± 13.0 ms
  QTc: 237.7 ± 12.2 ms
Cynomolgus monkeys; 450 mg/kg, d0
  HR: 214.3 ± 17.7 bmp
  QRS: 34.0 ± 5.5 ms
  QT: 156.0 ± 5.5 ms
  QTc: 238.2 ± 7.2 ms
Cynomolgus monkeys; 450 mg/kg, d 56
  HR: 203.3 ± 15.5 bmp
  QRS: 35.0 ± 7.1 ms
  QT: 160.0 ± 0.0 ms
  QTc: 240.2 ± 6.1 ms
Cynomolgus monkeys; high-dose females, 1 h after administration on d1 and d26
  QRS intervals: Prolonged
Cynomolgus monkeys; one high-dose male (animal No. 411), 1 h after administration on d26, prolonged
  QRS intervals: 60 ms
Cynomolgus monkeys; one high-dose male, 1 h after administration on d26
  Sinus arrhythmia: Sinus arrhythmia was observed in one high-dose male
Cynomolgus monkeys; one mid-dose female (animal No. 303), 1 h after administration on d26, prolonged
  QTc intervals: 296 ms
[1]; after consecutive 28 days of administration
  accumulation: the accumulation was not apparent
[1]; dose range of 20 to 450 mg/kg
  Systemic exposure (plasma AUC0-24h and Cmax of parent compound and main metabolite) vs dose: proportionately greater than the magnitude of the dose increments
